Laboratory results taken from ChEMBL document CHEMBL1201862, “PubChem BioAssay data set” (2004).
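96-well plates; 48 h exposure; 5 concentrations. Endpoints by linear interpolation between flanking doses. Not reached: highest tested concentration assigned. The concentration for 50% growth inhibition is given as GI50.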 Active and inactive are the calls of the source. Cut-off read from the data, not from the text of the source: active = GI50 up to about 1.1 µM and inactive = higher.

Key:
Test in all cases: inhibition of tumour cell growth, NCI panel, 48 h
786-0 = tested on: 786-0
A549 = tested on: A549
ACHN = tested on: ACHN
BT-549 = tested on: BT-549
CAKI-1 = tested on: CAKI-1
CCRF-CEM = tested on: CCRF-CEM
COLO 205 = tested on: COLO 205
DU-145 = tested on: DU-145
EKVX = tested on: EKVX
HCC 2998 = tested on: HCC 2998
HCT-116 = tested on: HCT-116
HCT-15 = tested on: HCT-15
HL-60 = tested on: HL-60
HOP-62 = tested on: HOP-62
HOP-92 = tested on: HOP-92
HT-29 = tested on: HT-29
Hs-578T = tested on: Hs-578T
IGROV-1 = tested on: IGROV-1
K562 = tested on: K562
KM12 = tested on: KM12
LOX IMVI = tested on: LOX IMVI
M14 = tested on: M14
MCF7 = tested on: MCF7
MDA-MB-231 = tested on: MDA-MB-231
MDA-MB-435 = tested on: MDA-MB-435
MDA-N = tested on: MDA-N
MOLT-4 = tested on: MOLT-4
Malme-3M = tested on: Malme-3M
NCI-H226 = tested on: NCI-H226
NCI-H23 = tested on: NCI-H23
NCI-H460 = tested on: NCI-H460
NCI-H522 = tested on: NCI-H522
NCI/ADR-RES = tested on: NCI/ADR-RES
OVCAR-3 = tested on: OVCAR-3
OVCAR-4 = tested on: OVCAR-4
OVCAR-5 = tested on: OVCAR-5
OVCAR-8 = tested on: OVCAR-8
PC-3 = tested on: PC-3
SF-268 = tested on: SF-268
SF-295 = tested on: SF-295
SF-539 = tested on: SF-539
SK-MEL-28 = tested on: SK-MEL-28
SK-MEL-2 = tested on: SK-MEL-2
SK-OV-3 = tested on: SK-OV-3
SN12C = tested on: SN12C
SNB-19 = tested on: SNB-19
SNB-75 = tested on: SNB-75
SR = tested on: SR
SW-620 = tested on: SW-620
TK-10 = tested on: TK-10
U-251 = tested on: U-251
UACC-257 = tested on: UACC-257
UACC-62 = tested on: UACC-62
UO-31 = tested on: UO-31
A498 = tested on: A498
RPMI-8226 = tested on: RPMI-8226
RXF 393 = tested on: RXF 393
SK-MEL-5 = tested on: SK-MEL-5
T47D = tested on: T47D

## Cc1ccc2nc(CN(CCO)CCO)cc(=O)n2c1
786-0
  GI50: > 100 µM (inactive)
A549
  GI50: > 100 µM (inactive)
ACHN
  GI50: > 100 µM (inactive)
BT-549
  GI50: > 100 µM (inactive)
CAKI-1
  GI50: > 100 µM (inactive)
CCRF-CEM
  GI50: > 100 µM (inactive)
COLO 205
  GI50: > 100 µM (inactive)
DU-145
  GI50: > 100 µM (inactive)
EKVX
  GI50: > 100 µM (inactive)
HCC 2998
  GI50: > 100 µM (inactive)
HCT-116
  GI50: > 100 µM (inactive)
HCT-15
  GI50: > 100 µM
HL-60
  GI50: > 100 µM (inactive)
HOP-62
  GI50: > 100 µM (inactive)
HOP-92
  GI50: > 100 µM (inactive)
HT-29
  GI50: > 100 µM (inactive)
Hs-578T
  GI50: > 100 µM (inactive)
IGROV-1
  GI50: > 100 µM (inactive)
K562
  GI50: > 100 µM (inactive)
KM12
  GI50: > 100 µM (inactive)
LOX IMVI
  GI50: > 100 µM (inactive)
M14
  GI50: > 100 µM (inactive)
MCF7
  GI50: > 100 µM (inactive)
MDA-MB-231
  GI50: > 100 µM (inactive)
MDA-MB-435
  GI50: > 100 µM (inactive)
MDA-N
  GI50: > 100 µM (inactive)
MOLT-4
  GI50: > 100 µM (inactive)
Malme-3M
  GI50: > 100 µM (inactive)
NCI-H226
  GI50: > 100 µM (inactive)
NCI-H23
  GI50: > 100 µM (inactive)
NCI-H460
  GI50: > 100 µM (inactive)
NCI-H522
  GI50: > 100 µM (inactive)
NCI/ADR-RES
  GI50: > 100 µM (inactive)
OVCAR-3
  GI50: > 100 µM (inactive)
OVCAR-4
  GI50: > 100 µM (inactive)
OVCAR-5
  GI50: > 100 µM (inactive)
OVCAR-8
  GI50: > 100 µM (inactive)
PC-3
  GI50: > 100 µM (inactive)
SF-268
  GI50: > 100 µM (inactive)
SF-295
  GI50: > 100 µM (inactive)
SF-539
  GI50: > 100 µM (inactive)
SK-MEL-28
  GI50: > 100 µM (inactive)
SK-MEL-2
  GI50: > 100 µM (inactive)
SK-OV-3
  GI50: > 100 µM (inactive)
SN12C
  GI50: > 100 µM (inactive)
SNB-19
  GI50: > 100 µM (inactive)
SNB-75
  GI50: > 100 µM (inactive)
SR
  GI50: > 100 µM (inactive)
SW-620
  GI50: > 100 µM (inactive)
TK-10
  GI50: > 100 µM (inactive)
U-251
  GI50: > 100 µM (inactive)
UACC-257
  GI50: > 100 µM (inactive)
UACC-62
  GI50: > 100 µM (inactive)
UO-31
  GI50: > 100 µM (inactive)

## O=C(/C=C/c1cccc([N+](=O)[O-])c1)N1CCN(CCOC(c2ccccc2)c2ccccc2)CC1
786-0
  GI50: 38.2 µM (inactive)
A498
  GI50: 50.7 µM (inactive)
A549
  GI50: 45.7 µM (inactive)
ACHN
  GI50: 34.5 µM (inactive)
BT-549
  GI50: 27.4 µM (inactive)
CAKI-1
  GI50: > 100 µM (inactive)
CCRF-CEM
  GI50: 28.4 µM (inactive)
COLO 205
  GI50: 21.7 µM (inactive)
DU-145
  GI50: 47.3 µM (inactive)
EKVX
  GI50: > 100 µM (inactive)
HCC 2998
  GI50: 23.7 µM (inactive)
HCT-116
  GI50: 18.6 µM (inactive)
HCT-15
  GI50: 31.1 µM
HOP-62
  GI50: > 100 µM (inactive)
HOP-92
  GI50: 16.6 µM (inactive)
HT-29
  GI50: 19.2 µM (inactive)
IGROV-1
  GI50: 42.6 µM (inactive)
K562
  GI50: 19.4 µM (inactive)
KM12
  GI50: 26.9 µM (inactive)
LOX IMVI
  GI50: 22.9 µM (inactive)
M14
  GI50: 32.9 µM (inactive)
MCF7
  GI50: 27.9 µM (inactive)
MDA-MB-435
  GI50: 33.4 µM (inactive)
MDA-N
  GI50: 37.3 µM (inactive)
MOLT-4
  GI50: 12.4 µM (inactive)
Malme-3M
  GI50: 31.8 µM (inactive)
NCI-H23
  GI50: 43.6 µM (inactive)
NCI-H460
  GI50: 25.9 µM (inactive)
NCI-H522
  GI50: 24.5 µM (inactive)
NCI/ADR-RES
  GI50: 48.6 µM (inactive)
OVCAR-3
  GI50: 66.1 µM (inactive)
OVCAR-4
  GI50: 29.9 µM (inactive)
OVCAR-5
  GI50: > 100 µM (inactive)
OVCAR-8
  GI50: 30.6 µM (inactive)
RPMI-8226
  GI50: 12.3 µM (inactive)
RXF 393
  GI50: 34.4 µM (inactive)
SF-295
  GI50: 56.8 µM (inactive)
SK-MEL-28
  GI50: 25.9 µM (inactive)
SK-MEL-5
  GI50: 14.9 µM (inactive)
SK-OV-3
  GI50: > 100 µM (inactive)
SN12C
  GI50: 57.5 µM (inactive)
SNB-19
  GI50: > 100 µM (inactive)
SNB-75
  GI50: 54.2 µM (inactive)
SR
  GI50: 16.1 µM (inactive)
SW-620
  GI50: 38.9 µM (inactive)
T47D
  GI50: 17.9 µM (inactive)
TK-10
  GI50: 22.7 µM (inactive)
UACC-257
  GI50: 32.4 µM (inactive)
UACC-62
  GI50: 33.8 µM (inactive)
UO-31
  GI50: 33.1 µM (inactive)

## C=CCn1c(-c2ccc([N+](=O)[O-])cc2)cs/c1=N\C(P(=O)(O)O)P(=O)(O)O
786-0
  GI50: > 100 µM (inactive)
A498
  GI50: > 100 µM (inactive)
A549
  GI50: > 100 µM (inactive)
ACHN
  GI50: > 100 µM (inactive)
BT-549
  GI50: > 100 µM (inactive)
CAKI-1
  GI50: > 100 µM (inactive)
CCRF-CEM
  GI50: > 100 µM (inactive)
COLO 205
  GI50: > 100 µM (inactive)
DU-145
  GI50: > 100 µM (inactive)
EKVX
  GI50: > 100 µM (inactive)
HCC 2998
  GI50: > 100 µM (inactive)
HCT-116
  GI50: > 100 µM (inactive)
HCT-15
  GI50: > 100 µM
HL-60
  GI50: 0.0383 µM (active)
HOP-62
  GI50: > 100 µM (inactive)
HOP-92
  GI50: > 100 µM (inactive)
HT-29
  GI50: > 100 µM (inactive)
Hs-578T
  GI50: > 100 µM (inactive)
IGROV-1
  GI50: > 100 µM (inactive)
K562
  GI50: > 100 µM (inactive)
KM12
  GI50: > 100 µM (inactive)
LOX IMVI
  GI50: > 100 µM (inactive)
M14
  GI50: > 100 µM (inactive)
MCF7
  GI50: > 100 µM (inactive)
MDA-MB-231
  GI50: > 100 µM (inactive)
MDA-MB-435
  GI50: > 100 µM (inactive)
MDA-N
  GI50: > 100 µM (inactive)
MOLT-4
  GI50: > 100 µM (inactive)
Malme-3M
  GI50: > 100 µM (inactive)
NCI-H226
  GI50: > 100 µM (inactive)
NCI-H23
  GI50: > 100 µM (inactive)
NCI-H460
  GI50: > 100 µM (inactive)
NCI-H522
  GI50: > 100 µM (inactive)
NCI/ADR-RES
  GI50: > 100 µM (inactive)
OVCAR-3
  GI50: > 100 µM (inactive)
OVCAR-5
  GI50: > 100 µM (inactive)
OVCAR-8
  GI50: > 100 µM (inactive)
PC-3
  GI50: > 100 µM (inactive)
RPMI-8226
  GI50: > 100 µM (inactive)
RXF 393
  GI50: > 100 µM (inactive)
SF-268
  GI50: > 100 µM (inactive)
SF-295
  GI50: > 100 µM (inactive)
SF-539
  GI50: > 100 µM (inactive)
SK-MEL-28
  GI50: > 100 µM (inactive)
SK-MEL-5
  GI50: > 100 µM (inactive)
SK-OV-3
  GI50: > 100 µM (inactive)
SNB-19
  GI50: > 100 µM (inactive)
SNB-75
  GI50: > 100 µM (inactive)
SR
  GI50: > 100 µM (inactive)
SW-620
  GI50: > 100 µM (inactive)
TK-10
  GI50: > 100 µM (inactive)
U-251
  GI50: > 100 µM (inactive)
UACC-257
  GI50: > 100 µM (inactive)
UACC-62
  GI50: > 100 µM (inactive)
UO-31
  GI50: > 100 µM (inactive)
